This is an account of results in patent US5807851A, “2,3-Benzodiazepine Derivatives as non-competitive AMPA” (Egis Gyogyszergyar Rt., priority 1997, dated 1998).

For this test, the system named is AMPA receptor. Description: In vitro kainate antagonistic activity: retinal spreading depression on isolated chicken retina. In kind it is cell-based. The note with it: isolated chicken retina preparations; spreading depression developed with 5 microM of kainate; at least 3 concentrations. The method, then: Antagonizing the effect of kainate (in vitro test)
The in vitro activity of the compounds was determined on isolated chicken retina preparations /M. J. Sheardown, Brain Res., 607, 189 (1993)/. The spreading depression was developped with 5 microM of kainate (the chemical name of kainic acid is 2-carboxy-4-isopropenyl-3-pyrrolidine-acetic acid), and the IC50 values were determined according to Sheardown. The compounds were tested in at least 3 concentrations. Compounds having AMPA antagonistic activity inhibit the response to the kainate having AMPA receptor agonistic activity, and the inhibition obtained depends on the concentration of the compounds.
With `CC1=NN=C(c2ccc(N)cc2)c2cc3c(cc2C1)OCO3` [A, reference compound], the IC50 was found to be 9.5 µM. `CC(=O)N1N=C(c2ccc(N)cc2)c2ccc(Cl)cc2CC1C` (stereo not shown) [Example 2, 3-Acetyl-1-(4-aminophenyl)-7-chloro-4-methyl-4,5-dihdyro-3H-2,3-benzodiazepine]: the half-maximal inhibitory concentration (IC50) was 3.2 µM. As for `CNC(=O)N1N=C(c2ccc(N)cc2)c2ccc(Cl)cc2CC1C` (stereo not shown) [Example 4, 1-(4-Aminophenyl)-7-chloro-4-methyl-3-(methylcarbamoyl)-4,5-dihydro-3H-2,3-benzodiazepine], the figure is 3.6 µM; as for `CC(=O)N1N=C(c2ccc(N)cc2)c2cc(Cl)ccc2CC1C` (stereo not shown) [Example 6, 3-Acetyl-1-(4-aminophenyl)-8-chloro-4-methyl-4,5-dihydro-3H-2,3-benzodiazepine], 8.2 µM; as for `CNC(=O)N1N=C(c2ccc(N)cc2)c2cc(Cl)ccc2CC1C` (stereo not shown) [Example 8, 1-(4-Aminophenyl)-8-chloro-4-methyl-3-methylcarbamoyl-4,5-dihydro-3H-2,3-benzodiazepine], 4.6 µM. As for `CC(=O)N1N=C(c2ccc(N)cc2)c2cc(Cl)c(Cl)cc2CC1C` (stereo not shown) [Example 10, 3-Acetyl-1-(4-aminophenyl)-7,8-dichloro-4-methyl-4,5-dihydro-3H-2,3-benzodiazepine], half-maximal inhibition (IC50) was put at 2.5 µM. In the case of `CNC(=O)N1N=C(c2ccc(N)cc2)c2cc(Cl)c(Cl)cc2CC1C` (stereo not shown) [Example 12, 1-(4-Aminophenyl)-7,8-dichloro-4-methyl-3-methylcarbamoyl-4,5-dihydro-3H-2,3-benzodiazepine], 1.2 µM corresponded to half-maximal inhibition (IC50).
